Type in all cases: biochemical
One experiment has as its target PIM-1 (Homo sapiens, UniProt P11309). As to the kind of experiment: Enzyme PIM-1 Assay ([33P]ATP incorporation into PIM2tide, filter plate). The conditions noted are these: averaged IC50; 35 μM ATP, 7.5 μM PIM2tide, 0.25 nM PIM-1, 60 min at 22° C. The method in brief: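 Ten-point, 3-fold dilution series (10 μM top, 2% DMSO final) tested for inhibition of 33P transfer from 35 μM ATP to 7.5 μM PIM2tide by 0.25 nM PIM-1. Reaction 60 min, 22 °C, pH 7.4 MOPS/MgCl2 buffer; phosphocellulose capture, scintillation counting, IC50 where fitted POC equals 50.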

Experiment [1] concerns the target T1, GST-tagged recombinant full-length human Pim-2 (Homo sapiens, UniProt Q9P1W9).
T1 construct: GST-tagged recombinant full-length human Pim-2; GST
Kind of experiment: PIM-2 Assay (as Example A). To be noted: averaged IC50; 4 μM ATP, 1.0 μM PIM2tide, 1.5 nM Pim-2. The method in brief: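 IC50 was derived by 4-parameter logistic fitting of percent-of-control data over a 10-point, 3-fold series (highest 10 μM, 2% DMSO). Reactions held 1.5 nM GST-Pim-2 (full-length, human), 4 μM [γ-33P]ATP and 1.0 μM PIM2tide for 60 min at 22 °C, pH 7.4; 33P-peptide captured on P81 filters.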

Another experiment has as its target recombinant rat PIM-3 (Rattus norvegicus, UniProt O70444). As to the kind of experiment: PIM-3 Assay (as Example A). The conditions noted are these: averaged IC50; 30 μM ATP, 3.75 μM PIM2tide, 0.5 nM PIM-3. The method in brief: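 33P incorporation from 30 μM [γ-33P]ATP into 3.75 μM PIM2tide by 0.5 nM rat PIM-3, 60 min at 22 °C in pH 7.4 MOPS buffer, read by P81 filter capture and scintillation counting. Compounds tested in 3-fold dilutions up to 10 μM final, 2% DMSO; percent-of-control data fitted by 4-parameter logistic for IC50.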

Where a name gives a salt, the structure may show the parent alone.

Sequence of PIM-1 (P11309 whole entry, species assumed): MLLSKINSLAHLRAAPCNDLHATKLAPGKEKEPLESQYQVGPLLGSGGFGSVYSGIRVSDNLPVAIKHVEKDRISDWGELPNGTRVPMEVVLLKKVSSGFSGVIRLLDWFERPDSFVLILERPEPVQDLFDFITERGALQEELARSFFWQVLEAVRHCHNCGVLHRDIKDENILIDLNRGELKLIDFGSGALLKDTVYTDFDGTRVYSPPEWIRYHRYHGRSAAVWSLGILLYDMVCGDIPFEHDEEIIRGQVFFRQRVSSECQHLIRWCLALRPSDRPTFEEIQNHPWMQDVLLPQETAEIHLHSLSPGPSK
T1 sequence (Q9P1W9 whole entry): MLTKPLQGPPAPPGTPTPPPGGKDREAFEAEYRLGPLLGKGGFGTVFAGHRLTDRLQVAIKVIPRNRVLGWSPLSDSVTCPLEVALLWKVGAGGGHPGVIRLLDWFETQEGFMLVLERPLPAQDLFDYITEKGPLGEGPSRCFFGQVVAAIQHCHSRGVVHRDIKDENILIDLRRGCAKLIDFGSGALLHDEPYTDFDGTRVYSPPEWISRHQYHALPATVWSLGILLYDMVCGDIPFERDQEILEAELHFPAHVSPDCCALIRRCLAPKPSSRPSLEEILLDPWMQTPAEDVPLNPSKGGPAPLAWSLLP

As usually defined, the IC50 is the midpoint of a concentration-inhibition curve. Take `COc1cc(F)cc2ccc(-c3nnc4ccc([C@@H](N5CC[C@@](C)(N)C5)C(F)(F)F)cn34)nc12` [Example 241, (R)-3-methyl-1-((R)-2,2,2-trifluoro-1-(3-(6-fluoro-8-methoxyquinolin-2-yl)-[1,2,4]triazolo[4,3-a]pyridin-6-yl)ethyl)pyrrolidin-3-amine dihydrochloride]: the results for the half-inhibitory concentration (IC50) (on PIM-1; in experiment [1]; at recombinant rat PIM-3) were 2.6 nM, over 1000 nM and 17 nM, respectively.

In the case of `COc1cccc2ccc(-c3nnc4ccc([C@@H](N5CC[C@](C)(N)C5)C(F)(F)F)cn34)nc12` [Example 246, (S)-3-methyl-1-((R)-2,2,2-trifluoro-1-(3-(8-methoxyquinolin-2-yl)-[1,2,4]triazolo[4,3-a]pyridin-6-yl)ethyl)pyrrolidin-3-amine dihydrochloride], the 50% inhibitory concentration (IC50) against PIM-1 is 1.77 nM; in experiment [1] it was over 1000 nM; at recombinant rat PIM-3, 15 nM.

For the compound `CCOc1cc2nc(-c3nnc4ccc([C@@H](N5CC[C@](C)(N)C5)C(F)(F)F)cn34)ccc2cc1F` [Example 247, (S)-1-((R)-1-(3-(7-ethoxy-6-fluoroquinolin-2-yl)-[1,2,4]triazolo[4,3-a]pyridin-6-yl)-2,2,2-trifluoroethyl)-3-methylpyrrolidin-3-amine dihydrochloride], the 50% inhibitory concentration (IC50) at PIM-1 stood at 0.41 nM; in experiment [1], 392 nM; on recombinant rat PIM-3, 1.2 nM.

With `COc1cc(F)cc2ccc(-c3nnc4ccc([C@@H](N5CC[C@](C)(N)C5)C(F)(F)F)cn34)nc12` [Example 248, (S)-3-methyl-1-((R)-2,2,2-trifluoro-1-(3-(6-fluoro-8-methoxyquinolin-2-yl)-[1,2,4]triazolo[4,3-a]pyridin-6-yl)ethyl)pyrrolidin-3-amine dihydrochloride], the figures for the IC50 (at PIM-1; in experiment [1]; on recombinant rat PIM-3) were 1.17 nM, over 1000 nM and 8.1 nM, respectively.

Regarding `CCOc1cc2nc(-c3nnc4ccc([C@H](N5CC[C@H](N)C5)C(F)(F)F)cn34)ccc2cc1F` [Example 249, (S)-1-((S)-1-(3-(7-ethoxy-6-fluoroquinolin-2-yl)-[1,2,4]triazolo[4,3-a]pyridin-6-yl)-2,2,2-trifluoroethyl)pyrrolidin-3-amine dihydrochloride], the IC50 against PIM-1 is 0.51 nM; in experiment [1], 83 nM; at recombinant rat PIM-3 it was 0.8 nM.

As for `N[C@H]1CCN([C@H](c2ccc3nnc(-c4ccc5cc(F)cc(OCCO)c5n4)n3c2)C(F)(F)F)C1` [Example 254, 2-(2-(6-((R)-1-((S)-3-aminopyrrolidin-1-yl)-2,2,2-trifluoroethyl)-[1,2,4]triazolo[4,3-a]pyridin-3-yl)-6-fluoroquinolin-8-yloxy)ethanol dihydrochloride], the IC50 against PIM-1 was 0.25 nM; in experiment [1], 273 nM; on recombinant rat PIM-3, 0.9 nM.

For `CCOc1ccc2ccc(-c3nnc4ccc([C@@H](N5CC[C@H](N)C5)C(F)(F)F)cn34)nc2c1` [Example 255, (S)-1-((R)-1-(3-(7-ethoxyquinolin-2-yl)-[1,2,4]triazolo[4,3-a]pyridin-6-yl)-2,2,2-trifluoroethyl)pyrrolidin-3-amine dihydrochloride], the IC50 against PIM-1 is 0.24 nM; in experiment [1], 284 nM; on recombinant rat PIM-3, 0.6 nM.

As to `CCOc1ccc2ccc(-c3nnc4ccc([C@H](N5CC[C@H](N)C5)C(F)(F)F)cn34)nc2c1` [Example 256, (S)-1-((S)-1-(3-(7-ethoxyquinolin-2-yl)-[1,2,4]triazolo[4,3-a]pyridin-6-yl)-2,2,2-trifluoroethyl)pyrrolidin-3-amine dihydrochloride], the concentration for half-maximal inhibition (IC50) on PIM-1 is 0.58 nM; in experiment [1], 199 nM; on recombinant rat PIM-3, 1 nM.

For the compound `CCOc1ccc2ccc(-c3nnc4ccc([C@@H](N5CCC6(CCCN6)C5)C(F)(F)F)cn34)nc2c1` (stereo partly drawn) [Example 257, 7-ethoxy-2-(6-((1R)-2,2,2-trifluoro-1-(1,7-diazaspiro[4.4]nonan-7-yl)ethyl)-[1,2,4]triazolo[4,3-a]pyridin-3-yl)quinoline dihydrochloride], the IC50 is 1.45 nM at PIM-1, 724 nM in experiment [1] and 9 nM at recombinant rat PIM-3.

Regarding `CCOc1ccc2ccc(-c3nnc4ccc([C@H](N5CCC6(CCCN6)C5)C(F)(F)F)cn34)nc2c1` (stereo partly drawn) [Example 258, 7-ethoxy-2-(6-((1S)-2,2,2-trifluoro-1-(1,7-diazaspiro[4.4]nonan-7-yl)ethyl)-[1,2,4]triazolo[4,3-a]pyridin-3-yl)quinoline dihydrochloride], the IC50 stood at 2.05 nM at PIM-1, 531 nM in experiment [1] and 1.9 nM at recombinant rat PIM-3.

On to `CC(C)(O)COc1cc(F)cc2ccc(-c3nnc4ccc([C@@H](N5CC[C@H](N)C5)C(F)(F)F)cn34)nc12` [Example 259, 1-(2-(6-((R)-1-((S)-3-aminopyrrolidin-1-yl)-2,2,2-trifluoroethyl)-[1,2,4]triazolo[4,3-a]pyridin-3-yl)-6-fluoroquinolin-8-yloxy)-2-methylpropan-2-ol formate], for which the concentration for half-maximal inhibition (IC50) was found to be 0.12 nM against PIM-1, 54 nM in experiment [1] and 0.3 nM on recombinant rat PIM-3.

As to `COCCOc1ccc2ccc(-c3nnc4ccc([C@H](N5CC[C@](C)(N)C5)C(F)(F)F)cn34)nc2c1` [Example 260, (S)-3-methyl-1-((S)-2,2,2-trifluoro-1-(3-(7-(2-methoxyethoxy)quinolin-2-yl)-[1,2,4]triazolo[4,3-a]pyridin-6-yl)ethyl)pyrrolidin-3-amine dihydrochloride], the results for the IC50 (at PIM-1; in experiment [1]; on recombinant rat PIM-3) were 0.39 nM, 95 nM and 0.5 nM, respectively.

In the case of `COCCOc1ccc2ccc(-c3nnc4ccc([C@@H](N5CC[C@](C)(N)C5)C(F)(F)F)cn34)nc2c1` [Example 261, (S)-3-methyl-1-((R)-2,2,2-trifluoro-1-(3-(7-(2-methoxyethoxy)quinolin-2-yl)-[1,2,4]triazolo[4,3-a]pyridin-6-yl)ethyl)pyrrolidin-3-amine dihydrochloride], the IC50 was 0.6 nM at PIM-1, over 1000 nM in experiment [1] and 3.3 nM on recombinant rat PIM-3.

In the case of `CCOc1ccc2ccc(-c3nnc4ccc([C@H](N5CC[C@](C)(N)C5)C(F)(F)F)cn34)nc2c1` [Example 262, (S)-1-((S)-1-(3-(7-ethoxyquinolin-2-yl)-[1,2,4]triazolo[4,3-a]pyridin-6-yl)-2,2,2-trifluoroethyl)-3-methylpyrrolidin-3-amine dihydrochloride], the IC50 at PIM-1 came to 0.22 nM; in experiment [1] it was 63 nM; on recombinant rat PIM-3, 0.4 nM.

With `COCC(C)(C)Oc1cccc2ccc(-c3nnc4ccc([C@@H](N5CC[C@H](N)C5)C(F)(F)F)cn34)nc12` [Example 263, (S)-1-((R)-2,2,2-trifluoro-1-(3-(8-(1-methoxy-2-methylpropan-2-yloxy)quinolin-2-yl)-[1,2,4]triazolo[4,3-a]pyridin-6-yl)ethyl)pyrrolidin-3-amine formate], the IC50 against PIM-1 was 0.66 nM; in experiment [1] it was 454 nM; on recombinant rat PIM-3, 3 nM.

For `COCC(C)(C)Oc1cc(F)cc2ccc(-c3nnc4ccc([C@@H](N5CC[C@H](N)C5)C(F)(F)F)cn34)nc12` [Example 264, (S)-1-((R)-2,2,2-trifluoro-1-(3-(6-fluoro-8-(1-methoxy-2-methylpropan-2-yloxy)quinolin-2-yl)-[1,2,4]triazolo[4,3-a]pyridin-6-yl)ethyl)pyrrolidin-3-amine formate], the IC50 against PIM-1 is 0.54 nM; in experiment [1] it was 255 nM; on recombinant rat PIM-3, 1.3 nM.

`N[C@H]1CCN([C@H](c2ccc3nnc(-c4ccc5ccc(CCO)cc5n4)n3c2)C(F)(F)F)C1` [Example 265, 2-(2-(6-((R)-1-((S)-3-aminopyrrolidin-1-yl)-2,2,2-trifluoroethyl)-[1,2,4]triazolo[4,3-a]pyridin-3-yl)quinolin-7-yl)ethanol dihydrochloride]: the IC50 against PIM-1 is 0.53 nM; in experiment [1], over 1000 nM; on recombinant rat PIM-3, 1.3 nM.

Consider `CCSc1ccc2ccc(-c3nnc4ccc([C@@H](N5CC[C@H](N)C5)C(F)(F)F)cn34)nc2c1` [Example 266, (S)-1-((R)-1-(3-(7-(ethylthio)quinolin-2-yl)-[1,2,4]triazolo[4,3-a]pyridin-6-yl)-2,2,2-trifluoroethyl)pyrrolidin-3-amine hydrochloride], for which the values for the IC50 (on PIM-1; in experiment [1]; on recombinant rat PIM-3) were 0.5 nM, 690 nM and 1 nM, respectively.

Regarding `N[C@H]1CCN([C@H](c2ccc3nnc(-c4ccc5ccc(SCCO)cc5n4)n3c2)C(F)(F)F)C1` [Example 267, 2-(2-(6-((R)-1-((S)-3-aminopyrrolidin-1-yl)-2,2,2-trifluoroethyl)-[1,2,4]triazolo[4,3-a]pyridin-3-yl)quinolin-7-ylthio)ethanol hydrochloride], the IC50 on PIM-1 worked out at 0.35 nM; in experiment [1] it was 350 nM; on recombinant rat PIM-3 it was 0.7 nM.

The values above are taken from patent US8889704B2 (Array BioPharma Inc., priority 2011, dated 2014).
